Laboratory results: US11905265B1, “3,4-dimethoxy-n′-(2-(5-phenyl-1,3,4-oxadiazol-2ylthio)acetoxy)benzimidamide as an antimicrobial compound” (KING FAISAL UNIVERSITY, priority 2023, dated 2024)

Columns and labels:
Assay type in all cases: cell-based
Aspergillus flavus = experiment: Agar plate disc-diffusion, antifungal activity (inhibition zone); details: Sabouraud's dextrose agar, 72 hours
Procedure: (§1) The agar plate disc-diffusion method was applied. […] The discs were then placed onto the surface of agar plates (nutrient agar for bacteria and Sabouraud's dextrose agar for fungi) seeded with the test organism. Each plate contained 15 mL of the agar medium, previously seeded with 0.2 mL of the broth culture of each organism pregrown for 18 hours. The plates were incubated at 37° C. for 48 hours, and 72 hours for fungi. The inhibition zones were measured in milimeters. Discs impregnated with DMSO were used as a control, and its inhibition zone was subtracted from the tested compound actual inhibition zone.
(§2) The antibacterial activity was screened against gram positive bacteria namely Bacillus cereus and Staphylococcus aureus and gram-negative bacterial strains namely Pseudomonas aeruginosa and Escherichia coli, while the antifungal activity was screened against Aspergillus flavus and Chrysosporium keratinophilum as shown in Table 1 and 2.

[1] = tested on: Chrysosporium keratinophilum; experiment: as above; details: Sabouraud's dextrose agar, 72 hours
Procedure: as §1, §2

Staphylococcus aureus = experiment: Agar plate disc-diffusion, antibacterial activity (inhibition zone); details: nutrient agar, 37° C., 48 hours
Procedure: as §1, §2

Bacillus cereus = experiment: as above; details: nutrient agar, 37° C., 48 hours
Procedure: as §1, §2

Escherichia coli = experiment: as above; details: nutrient agar, 37° C., 48 hours
Procedure: as §1, §2

Pseudomonas aeruginosa = experiment: as above; details: nutrient agar, 37° C., 48 hours
Procedure: as §1, §2

[2] = A = concentration of comp. = 10,000 uL
[3] = B = concentration of comp. = 30,000 uL
[4] = C = concentration of comp. = 50,000 uL

Compound	inhibition zone (Aspergillus flavus; [2])	inhibition zone (Aspergillus flavus; [3])	inhibition zone (Aspergillus flavus; [4])	inhibition zone [1, 2]	inhibition zone [1, 3]	inhibition zone [1, 4]	inhibition zone (Staphylococcus aureus; [2])	inhibition zone (Staphylococcus aureus; [3])	inhibition zone (Staphylococcus aureus; [4])	inhibition zone (Bacillus cereus; [2])	inhibition zone (Bacillus cereus; [3])	inhibition zone (Bacillus cereus; [4])	inhibition zone (Escherichia coli; [2])	inhibition zone (Escherichia coli; [3])	inhibition zone (Escherichia coli; [4])	inhibition zone (Pseudomonas aeruginosa; [2])	inhibition zone (Pseudomonas aeruginosa; [3])	inhibition zone (Pseudomonas aeruginosa; [4])
O=C(O)c1cn(C2CC2)c2cc(N3CCNCC3)c(F)cc2c1=O [Cip., ciprofloxacin]	29 mm	30 mm	42 mm	29 mm	30 mm	53 mm	43 mm	44 mm	53 mm	29 mm	30 mm	42 mm	30 mm	39 mm	60 mm	29 mm	30 mm	53 mm
COc1ccc(/C(N)=N/OC(=O)CSc2nnc(-c3ccccc3)o2)cc1OC [Compound 3, 3,4-dimethoxy-N′-(2-(5-phenyl-1,3,4-oxadiazol-2-ylthio)acetoxy)benzimidamide]	23 mm	27 mm	40 mm	24 mm	26 mm	40 mm	24 mm	27 mm	43 mm	25 mm	29 mm	41 mm	26 mm	35 mm	50 mm	20 mm	24 mm	37 mm
